One may read the IC50 as the concentration that gives 50% inhibition.

The values that follow come from PMC7044196, “B38-CAP is a bacteria-derived ACE2-like enzyme that suppresses hypertension and cardiac dysfunction” (Nature Communications, 2020).

In experiment [1] the test system is T1, B38-CAP.
T1 construct: no tag mentioned
The experiment is described as follows: fluorogenic peptide hydrolysis assay. As to conditions: pH 7.5 HEPES, 0.3 M NaCl, 0.01% Triton X-100, 37 °C, 30 min; fluorogenic ACE2 substrate. In kind it is biochemical, Paenibacillus sp. B38. From the text:
fluorogenic peptide hydrolysis assay on B38-CAP

The target of experiment [2] is T2, recombinant human ACE2 (rhACE2) (Homo sapiens, UniProt Q9BYF1).
T2 construct: recombinant human ACE2 from Calbiochem for the constants
The experiment is described as follows: fluorogenic peptide hydrolysis assay. In kind it is biochemical. From the text:
fluorogenic peptide hydrolysis assay on recombinant human ACE2 (rhACE2)

T2 sequence (Q9BYF1 18-740 limits assumed): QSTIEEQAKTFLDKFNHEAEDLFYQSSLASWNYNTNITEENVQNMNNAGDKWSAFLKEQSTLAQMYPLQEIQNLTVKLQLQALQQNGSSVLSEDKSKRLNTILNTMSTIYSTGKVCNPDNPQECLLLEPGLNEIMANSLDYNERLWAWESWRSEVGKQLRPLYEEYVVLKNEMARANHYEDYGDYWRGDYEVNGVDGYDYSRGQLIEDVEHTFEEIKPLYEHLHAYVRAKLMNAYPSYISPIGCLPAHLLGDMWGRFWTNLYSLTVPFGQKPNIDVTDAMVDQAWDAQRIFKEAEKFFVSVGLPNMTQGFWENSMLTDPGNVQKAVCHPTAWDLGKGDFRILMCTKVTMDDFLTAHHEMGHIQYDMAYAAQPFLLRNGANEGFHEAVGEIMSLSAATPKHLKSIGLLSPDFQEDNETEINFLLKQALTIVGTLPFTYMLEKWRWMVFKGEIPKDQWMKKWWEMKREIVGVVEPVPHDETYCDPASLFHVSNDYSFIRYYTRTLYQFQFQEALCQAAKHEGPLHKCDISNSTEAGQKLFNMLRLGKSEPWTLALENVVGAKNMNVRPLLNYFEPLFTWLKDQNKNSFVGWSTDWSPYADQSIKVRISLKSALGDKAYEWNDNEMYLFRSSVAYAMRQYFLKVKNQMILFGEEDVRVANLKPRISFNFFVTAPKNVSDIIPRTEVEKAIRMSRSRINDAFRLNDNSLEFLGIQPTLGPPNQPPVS

As to `CC(C)C[C@H](N[C@@H](Cc1cncn1Cc1cc(Cl)cc(Cl)c1)C(=O)O)C(=O)O` [MLN-4760], the IC50 in experiment [1] came to 710 ± 173 pM; in experiment [2] it was 340 ± 50.1 pM.
